For assay [1], the system named is antibody AB167. Kind of assay: Phage ELISA for TAG suppression (binding of antibody AB167). Details: species or system rabbit. Particulars: 10^8 pfu/ml; relative to clone B1 grown in the same host; /B = nonsuppressor BLT5403, /C = suppressor C600CR; average of triplicate wells. As to the method:
(§1) Phage purified by double precipitation with PEG was diluted in Dulbecco's PBS (DPBS) and applied to wells of a 96-well Maxisorp® plate (Nalge Nunc International®, Rochester, N.Y.) and allowed to bind for one hour followed by three washes with 400 μl of OptEIA wash buffer (BD Biosciences) and blocking with 1% BSA in TBS-Tween (0.1%). All washes were done at room temperature with slow orbital shaking. Antibody AB 167 diluted 1:500 was applied in PBS-T containing 1% BSA and allowed to bind for one hour at room temperature then washed five times with 400 μl of wash buffer. Bound antibody was detected with the secondary antibody goat anti-rabbit HRP diluted 1:1000 in PBS-T with 1% BSA applied for one hour and washed five times with 400 μl of wash buffer followed by development with OptEIA reagents according to the manufacturer's directions. Means were compared using Student's t-test.
Growth of phage containing the insert encoding Trp cage TC5b in the host BLT5403 which limits expression to 5 to 10 copies of the peptide, produced clones displaying the expected sequence […] (SEQ ID NO: 530) with a low frequency of mutations (one out of twelve sequenced clones). […] Some of the mutant clones contained the TAG stop codon within the Trp cage sequence and were expected to result in the display of truncated peptides. Two nonsense mutants, E7 which contained a TAG stop codon at Tyr-3 of the Trp cage sequence NL*IQWLKDGGPSSGRPPPS (SEQ ID NOs: 588 and 534, respectively in order of appearance) and E12 which contained a TAG stop codon at Trp-6 of the Trp cage sequence NLYIQ*LKDGGPSSGRPPPS (SEQ ID NOs: 535 and 553, respectively in order of appearance), were chosen to test the effectiveness of the suppressor host C600CR by ELISA. […] Since AB167 is a polyclonal antibody, some binding to the truncated peptides of E7 and E12 was expected with possibly greater binding to E12 because it is three residues longer than E7.
Binding of antibody AB167 to T7Select® 10-3b phage grown in the nonsuppressor host BLT5403 (B) was compared with binding to phage grown in the suppressor host C600CR (C). […] Binding of the antibody to phage mutants E7 and E12 displaying truncated Trp cages grown in B (E7/B and E12/B, respectively) was related to antibody binding to phage clone B I displaying the full length Trp cage on a percentage basis. The phage mutants grown in C (E7/C and E12/C) were likewise related to B1 grown in C. Results represent the average of triplicate wells.
On the technique in general: In an ELISA, binding on a coated surface is turned into a signal by an enzyme label.

Assay [2] has as its system 16HBE140- cells. As to the kind of experiment: Phage ELISA binding to 16HBE140- cells. The class given is cell-based, human. Particulars: unfixed cells; for OD 450 nm: 10^10 pfu/ml, average of triplicate wells; for Binding to 16HBE140- cells (in words): phage ELISA. As to the method:
Phage binding to 16HBE140- cells was analyzed using confluent cells grown with DMEM-F12 complete medium in 96-well collagen coated plates (BD Biosciences, San Diego, Calif.) at 37° C. in 5% CO2. The cells were washed with DPBS and phage diluted in DPBS containing 1% BSA (DPBS-BSA) were applied in 100 μl. Bound phage were detected using primary antibody (mouse IgG T7 tail fiber monoclonal antibody diluted 1:2000 in DPBS-BSA) and secondary antibody (goat anti-mouse IgG HRP diluted 1:5000 in DPBS-BSA) followed by detection with OptEIA reagents as above.
Binding of phage T7Select®10-3b displaying Trp cage TC5b (Trp cage) was compared to binding of three phage clones selected from the naïve Trp cage library after 3 rounds of panning against the human bronchial epithelial cell line 16HBE140-. Results represent the average of triplicate wells.

Assay [3] relates to HepG2 cells. Kind of assay: Cell-based ELISA for cell-specific binding, HepG2. The arrangement: species or system human. Particulars: methanol-fixed HepG2 cells, M13 PHD-7 phage clones. How it is done: (§2) For screening cell-specific binding phage display peptides, confluent HepG2 or HUVEC cells grown in DMEM-F12-complete in a 96-well plate fixed with methanol, stored at 4° C. Applied 250 μl/well of diluted phage and incubated in wells for 1 hour while shaking. Stopped reactions with 75 ul of 1M HCl after ˜5-7 min, read at 450 nm.
(§3) Representative display peptides isolated from panning against either HepG2 or HUVEC cells with the Trp cage and M13 libraries were tested for cell-specific binding. The peptide having the amino acids sequence SIGYLPL (SEQ ID NO: 532) and the peptide having the amino acid sequence LTAELTP (SEQ ID NO: 533) served as positive HepG2 binding controls. The 7-mer display peptide represented by the amino acid sequence HPQ served as a negative binding control.
(§4) Staining by the positive controls was less intense than NLQEFLF (SEQ ID NO: 61).

In assay [4] the test system is HUVEC cells. Kind of assay: Cell-based ELISA for cell-specific binding, HUVEC. The arrangement: species or system human. The settings on record: M13 PHD-7 phage clone. How it is done: as §2, §3, §4
For assay [5], the system named is HepG2 cells. As to the kind of experiment: Fluorescence microscopy with FITC-labeled phage on HepG2 cells. It is filed as cell-based, human. The settings on record: ~e9 pfu per well, 1 hr, visualized at 200×. How it is done: The phage microscopy protocol is as follows:
1. Grow HepG2 cells on collagen I coated glass chamber slides to 100% confluence.
2. On the day of the experiment, wash cells 3 to 5 times ˜300 μl/well of PBS.
3. Fix with 100 μl/well of methanol (chilled at −20C) for 7 min at room temperature.
4. Wash 3-5 times with ˜300 μl/well of PBS.
5. Apply 10 μl/well (˜e9 pfu) of FITC-labeled M13 phage.
6. Incubate on a rotating platform at room temperature for 1 hr in the dark.
7. Wash 5 times with ˜300 μl/well of PBS.
8. Remove chambers, dry, mount, and visualize at 200×.
as §4

Assay [6] concerns antibody AB167. As to the kind of experiment: Phage ELISA with antibody AB167 for display of Trp cage TC5b on the phage capsid. Particulars: 1×10^6, 1×10^7 and 1×10^8 phage per well. The class given is binding, rabbit. As to the method:
as §1
Two negative controls were used. One was the 10-3b vector with no insert and the other was the 10-3b vector containing the S-Tag. All phage were incubated with the AB167 antibody at 1×10^6, 1×10^7 and 1×10^8 phage per well for the ELISA.

In assay [7] the test system is antibody AB167. As to the kind of experiment: Western analysis of phage lysates with antibody AB167. The class given is binding, rabbit. The settings on record: SDS-PAGE separated proteins, AB167 diluted 1:2500. As to the method:
For Western analysis, phage were purified by double precipitation with PEG and denatured by boiling in Tris-Glycine SDS sample buffer (2×) with 1% beta-mercaptoethanol (BME). A 10 μl sample containing 1×10^11 pfu/ml was loaded into a well of a 1 mm 4% to 20% Tris-Glycine gel (Invitrogen®) and electrophoresed for 1.5 hours at 150 volts (constant voltage) in Tris-Glycine SDS running buffer. The separated proteins were transferred to a PVDF membrane (1.5 hours at room temperature) and blocked with 3% non-fat dry milk in TBS-T (0.05%) for one hour at room temperature. The membrane was probed for two hours with antibody AB167 diluted 1:2500 at room temperature followed by three five minute washes with TBS-T. Goat anti-rabbit HRP diluted 1:5000 was used to detect the bound AB167 antibody. It was incubated with the membrane for one hour at room temperature followed by four 10 minute washes and the membrane was developed with SuperSignal West Femto Maximum Sensitivity Substrate® (Pierce®) according to the manufacturer's instructions. MagicMark XP Western Protein Standards were used for size reference standards.
For the Western blot analysis of Trp cage TC5b expressed with the 10-3b T7Select® vector, proteins in lysates from phage infected cells were separated by SDS-PAGE in Coomasie stained gel. […]

The record followed here is patent publication US7704953B2, “Phage displayed cell binding peptides” (MDRNA, Inc., priority 2006, dated 2010).

In assay [1], NL*IQWLKDGGPSSGRPPPS [E7/C] displayed a Percent antibody binding of 65%.

Regarding DAYPQWLFTPGPTSGRPPPL* [624-55-21], the “OD 450 nm” value in assay [2] is listed as 0.15.

“NLQEFLF [M13 PHD-7 phage display peptide isolated by panning against HepG2 cells]”: the “Binding to HepG2 cells (cell-based ELISA)” value in assay [3] is on record as “HepG2 specific binding”. For the same substance, in assay [4], the “Binding to HUVEC cells (cell-based ELISA)” value is on record as “did not bind”. Besides, in assay [5], the “Binding/staining of FITC-labeled phage on methanol-fixed HepG2 cells” value was “bound”.

Take DPYAQWLQSMGPHSGRPPPR* [624-55-29]: in assay [2], the “OD 450 nm” value came to 0.39 and the “Binding to 16HBE140- cells (in words)” value is “demonstrated binding”.

As for DRYPQWLNGMGPSSGRPPPN* [624-55-20], the “OD 450 nm” value in assay [2] is 0.22.

For “NLYIQWLKDGGPSSGRPPPS [10-3b/TC5b, reference compound]”, in assay [2], the “OD 450 nm” value is on record as 0.22 and the “Binding to 16HBE140- cells (in words)” value is “low”. Besides, the “ELISA signal with antibody AB167” value in assay [6] was “signal was detected”. Further, the “Binding of antibody AB167 to protein of phage lysate (Western blot)” value in assay [7] is on record as “contained a protein that bound the Trp cage specific antibody AB167”.

In assay [1], NL*IQWLKDGGPSSGRPPPS [E7/B] displayed a Percent antibody binding of 32%.

With NLYIQWLKDGGPSSGRPPPS [B1/C], the Percent antibody binding in assay [1] is recorded as 100%.

As for NLYIQ*LKDGGPSSGRPPPS [E12/C], in assay [1], the Percent antibody binding was 62%.

In assay [1], NLYIQ*LKDGGPSSGRPPPS [E12/B] gave a Percent antibody binding of 50%.
